Assay results from US8017124B2, “Use of DMBT1 for capturing sulphate and phosphate group exposing agents” (priority 2004, dated 2011).
Read-outs that look alike come from different tables or passages of the source.

Assays:
DMBT1pbs1 = molecular target: T1, DMBT1pbs1 (Homo sapiens, UniProt Q9UGM3); assay type: binding; design: key: +++: no difference in aggregation compared to reference; ++: moderate inhibition of aggregation over the entire time course or maximal aggregation delayed by 1-5-min compared to reference; +: strong inhibition of aggregation over the entire time course or maximal aggregation delayed by 5-10 min compared to reference; −: complete inhibition of aggregation after 10 min
T1 construct: purchased Eurogentec, Belgium
Method: Streptococcus mutans (Ingbritt), Streptococcus gordonii (HG 222 and DSM20568), Escherichia coli (F7 and OM36-1), and Helicobacter pylori (ATCC 43504) were gown and processed as described earlier. Salmonella typhimurium (strain SF1399: wild type; strain SF1195: Rc chemotype; strain SF1567: Rd1 chemotype; strain SF1398: Re chemotype) were kindly provided by Dr. Ben Appelmelk from the Free University of Amsterdam, The Netherlands, and were grown and processed as previously described for E. coli. The bacteria were diluted in the buffers depicted previously to a final OD700 of 0.5 or 1.0 corresponding to about 0.5 and 1.0×10^9 cells/ml respectively.
For quantitative measurements of bacterial aggregation, we added 200 μl peptide stock solution (1 mg/ml in 10% DMSO) diluted with 300 μl TBS containing 0.1% v/v Tween 20 and 1 mM CaCl2 (TBS-TC) to 500 μl of the respective bacterial suspensions to obtain final peptide concentrations of […]. As controls, we used bacterial suspensions, to which 200 μl 10% (v/v %) DMSO in H2O and 300 μl TBS-TC were added. Bacterial aggregation was monitored by measuring the optical density at 700 nm in intervals of 1 min for 1 h in a spectrophotometer (UVICON 930, Kontron Instruments). For the semi-quantitative high-throughput competition assays, we first determined the allowed pH range for DMBT1pbs1-mediated aggregation of S. gordonii and E. coli by using TBS-TC adjusted with either HCl or NaOH. […] For monitoring competitive effects, we preincubated 20 μl of the DMBT1pbs1 stock solution (20 μg) with 20 μl of the respective substance solutions in 48-well microtiter plates at room temperature (RT) for 2 min. As reference served 20 μl 10% (v/v) DMSO solution in H2O mixed with 20 μl of the solvents of the respective substances. Afterwards, 100 μl of S. gordonii or E. coli (resuspended in TBS-TC or TBS-T, respectively, for the calcium-free assays) solution was added simultaneously to each well using a multichannel pipette. Bacterial aggregation was compared to the reference by visual inspection over a time course of 10 min. The scoring system was: (+++) no difference in aggregation compared to reference. (++) moderate inhibition of aggregation over the entire time course or maximal aggregation delayed by 1-5-min compared to reference; (+) strong inhibition of aggregation over the entire time course or maximal aggregation delayed by 5-10 min compared to reference; (−) complete inhibition of aggregation after 10 min. Each experiment was at least done in triplicate.
Sucrose, maltose, dextrose, and the various salts tested were standard reagents obtained from Merck or Sigma. […] The following substances were obtained from Sigma with catalogue numbers in brackets: heparansulfate (H-7640), chondroitinsulfate B (C-3788), azoxymethane (A-9517), N-nitrosodiethlylamine (N-0258), streptococcus sanguis LTA (L-3765), Staphylococcus aureus LTA (L-2515), Escherichia coli LPS (L-3012), Klebsiella pneumoniae LPS (L-1770), Salmonella typhimurium LPS (L-6511), Salmonella minnesota LPS (chemotype Rd1; L-9391), L-α-phosphatidylcholine (P-279), CUROSURF™ with 80 mg/ml phospholipids from pig surfactant (54 mg/ml phosphatidylcholine and 30-5 mg/ml D-palmitoylphosphatidylcholine; overall: 99% polar phospholipids and 1% proteins) was obtained from Dey (Napa; Italy), and sIgA was purchased from Sigma. The dNTPs and the dNTP-Mix were from Roche Diagnostics. The DNA used in all experiments was the 4.7-kb plasmid pEGFP-N1 from Clontech.

[1] = molecular target: T2, rDMBT1 binding to HIV-gp120 (Homo sapiens, UniProt Q9UGM3, G1295S/L1336F/T649M); test: Effects of DSS and dextran on rDMBT1 binding to HIV-gp120; details: 100 μg/ml DSS or dextran; rDMBT1 2 μg/ml; gp120 1 μg/ml
T2 construct: made in house; host or cells: rDMBT1 from T-REx-CHO
Source text: Values are means of five independent experiments.

Salmonella typhimurium = Salmonella typhimurium binding to immobilized DMBT1 or peptide; details: Rd1 and Re chemotype versus wild type
Method: Salivary DMBT1 (salivary agglutinin; DMBT1^SAG; hereafter referred to as DMBT1) was obtained from parotid saliva of healthy volunteer donors collected with Lashley cups. For confirmatory experiments of DMBT1 interaction partners, initial studies with Salmonella strains, and HIV studies we used DMBT1 purified to about 95% homogeneity by the procedure described before. The concentration was determined by the BCA Protein Assay Kit (Pierce) according to the instructions of the manufacturer. […] For partial purification, 50 ml parotid saliva was incubated for 0.5 to 1 h in ice water, in order to promote the formation of a precipitate. After centrifugation for 20 min (4° C.; 5,000 g), the pellet was resuspended in 1.0 to 2.5 ml PBS. In order to determine the DMBT1 concentrations within the samples, serial dilutions of the preparations were compared to serial dilutions of purified recombinant DMBT1 (rDMBT1) by ELISA and the adjusted concentrations were confirmed by Western blotting (see below).
Streptococcus mutans (Ingbritt), Streptococcus gordonii (HG 222 and DSM20568), Escherichia coli (F7 and OM36-1), and Helicobacter pylori (ATCC 43504) were gown and processed as described earlier. […]

T2 sequence (Q9UGM3 20-2413 T649M/G1295S/L1336F): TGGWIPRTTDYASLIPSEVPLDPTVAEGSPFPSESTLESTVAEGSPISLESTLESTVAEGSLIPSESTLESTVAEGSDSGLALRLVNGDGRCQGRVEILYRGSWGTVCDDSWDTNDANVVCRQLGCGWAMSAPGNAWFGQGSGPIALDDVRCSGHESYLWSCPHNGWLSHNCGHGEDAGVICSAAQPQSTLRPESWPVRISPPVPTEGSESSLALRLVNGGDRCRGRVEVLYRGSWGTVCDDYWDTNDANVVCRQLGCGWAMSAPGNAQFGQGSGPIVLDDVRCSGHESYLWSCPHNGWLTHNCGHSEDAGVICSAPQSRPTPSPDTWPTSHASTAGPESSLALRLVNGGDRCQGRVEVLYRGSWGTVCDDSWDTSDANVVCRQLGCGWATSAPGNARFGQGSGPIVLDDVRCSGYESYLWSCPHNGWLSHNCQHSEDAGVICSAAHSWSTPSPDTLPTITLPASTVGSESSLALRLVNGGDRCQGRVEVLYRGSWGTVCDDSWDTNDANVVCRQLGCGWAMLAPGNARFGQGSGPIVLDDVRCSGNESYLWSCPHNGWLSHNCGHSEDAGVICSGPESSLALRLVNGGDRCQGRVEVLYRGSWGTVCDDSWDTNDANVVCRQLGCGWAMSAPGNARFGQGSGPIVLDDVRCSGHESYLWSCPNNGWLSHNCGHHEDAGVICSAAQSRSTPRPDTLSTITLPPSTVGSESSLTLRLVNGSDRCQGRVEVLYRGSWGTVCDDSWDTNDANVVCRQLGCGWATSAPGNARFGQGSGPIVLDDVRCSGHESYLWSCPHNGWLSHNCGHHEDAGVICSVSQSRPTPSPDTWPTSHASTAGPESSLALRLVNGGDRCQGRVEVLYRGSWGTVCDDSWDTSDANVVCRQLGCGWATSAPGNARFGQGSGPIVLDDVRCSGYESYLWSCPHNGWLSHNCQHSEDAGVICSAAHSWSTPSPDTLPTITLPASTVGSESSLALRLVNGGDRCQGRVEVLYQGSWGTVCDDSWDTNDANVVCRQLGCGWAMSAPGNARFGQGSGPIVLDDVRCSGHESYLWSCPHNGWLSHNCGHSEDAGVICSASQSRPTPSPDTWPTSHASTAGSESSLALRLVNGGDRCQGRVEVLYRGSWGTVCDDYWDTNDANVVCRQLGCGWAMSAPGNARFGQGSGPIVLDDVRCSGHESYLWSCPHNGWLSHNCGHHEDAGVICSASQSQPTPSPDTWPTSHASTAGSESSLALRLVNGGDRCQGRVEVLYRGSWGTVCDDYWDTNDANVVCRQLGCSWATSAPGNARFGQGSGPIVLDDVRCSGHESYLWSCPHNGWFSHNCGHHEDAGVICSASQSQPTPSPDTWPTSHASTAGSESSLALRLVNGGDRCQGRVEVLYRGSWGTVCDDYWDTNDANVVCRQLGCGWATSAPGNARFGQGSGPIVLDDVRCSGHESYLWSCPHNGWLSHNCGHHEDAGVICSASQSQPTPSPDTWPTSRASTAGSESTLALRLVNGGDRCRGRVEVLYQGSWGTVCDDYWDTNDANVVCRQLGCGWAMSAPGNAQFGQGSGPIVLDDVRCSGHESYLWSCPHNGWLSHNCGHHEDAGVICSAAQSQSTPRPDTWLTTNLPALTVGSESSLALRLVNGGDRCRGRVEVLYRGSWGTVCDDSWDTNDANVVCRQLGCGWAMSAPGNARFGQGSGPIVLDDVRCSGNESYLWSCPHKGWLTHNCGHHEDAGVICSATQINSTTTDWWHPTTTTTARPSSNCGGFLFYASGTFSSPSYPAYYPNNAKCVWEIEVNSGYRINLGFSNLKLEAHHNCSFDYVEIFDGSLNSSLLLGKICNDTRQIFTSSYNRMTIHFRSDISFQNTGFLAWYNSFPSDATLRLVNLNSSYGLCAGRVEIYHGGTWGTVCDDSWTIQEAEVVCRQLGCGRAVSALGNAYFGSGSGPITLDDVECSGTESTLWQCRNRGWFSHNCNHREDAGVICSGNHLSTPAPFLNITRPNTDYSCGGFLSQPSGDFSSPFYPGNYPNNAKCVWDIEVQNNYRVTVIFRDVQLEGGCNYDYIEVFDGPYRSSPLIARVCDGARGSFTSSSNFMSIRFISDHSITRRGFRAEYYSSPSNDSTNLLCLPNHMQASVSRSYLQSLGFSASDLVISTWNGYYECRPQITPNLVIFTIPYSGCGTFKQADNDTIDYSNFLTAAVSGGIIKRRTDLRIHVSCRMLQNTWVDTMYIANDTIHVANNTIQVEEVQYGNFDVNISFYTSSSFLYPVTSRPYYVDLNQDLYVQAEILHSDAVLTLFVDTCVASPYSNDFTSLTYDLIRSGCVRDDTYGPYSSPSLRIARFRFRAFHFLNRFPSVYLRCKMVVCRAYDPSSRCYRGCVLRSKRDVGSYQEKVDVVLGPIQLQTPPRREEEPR

Q: How did the “Aggregation of E. coli” value (DMBT1pbs1) turn out when `[Cl-].[Na+]` [NaCL] was run?
A: Its value is “+++ and +”.

Q: And the “Aggregation of S. gordonii” value (DMBT1pbs1)?
A: The value was “+++ and +”.

Q: With dextran as the compound, how does the “inhibition of rDMBT1 binding to immobilized HIV-gp120” value [1] read?
A: The value was “but not dextran, which lacks the sulfate groups, exerted an inhibitory effect”.

Q: How did the “Aggregation of E. coli” value (DMBT1pbs1; substance 1-5 mg/ml, pH co) turn out when Chondroitin sulfate B was run?
A: The value was “−”.

Q: And the “Aggregation of S. gordonii” value (DMBT1pbs1; substance 1-5 mg/ml, pH co)?
A: The value was “−”.

Q: Which “binding of Salmonella typhimurium chemotypes” value (Salmonella typhimurium) does the source give for “NH2-QGRVEVLYRGSWGTVC-COOH (H-QGRVEVLYRGSWGTVC-OH) [DMBT1-SRCRP2]” here?
A: The value was “Enhanced binding of the Rd1 and Re chemotype”.

Q: For `[Na+].[OH-]` [NaOH], which “Aggregation of E. coli” value (DMBT1pbs1; substance 5-50 mM, pH co) is on record?
A: Its value is “+++”.

Q: What about the “Aggregation of S. gordonii” value (DMBT1pbs1; substance 5-50 mM, pH co) of the same compound?
A: Its value is “+++”.

Q: Which results are given for `O=P([O-])([O-])[O-].[Na+].[Na+].[Na+]` [Na3PO4]?
A: Aggregation of E. coli (DMBT1pbs1; substance 1 mM, pH co): ++; Aggregation of S. gordonii (DMBT1pbs1; substance 1 mM, pH co): ++

Q: With `Nc1nc2c(ncn2[C@H]2C[C@H](O)[C@@H](COP(=O)(O)OP(=O)(O)OP(=O)(O)O)O2)c(=O)[nH]1` [dGTP] as the compound, how does the “Aggregation of E. coli” value (DMBT1pbs1; substance 1-8 mM, pH co) read?
A: The value was “++”.

Q: And the “Aggregation of S. gordonii” value (DMBT1pbs1; substance 1-8 mM, pH co)?
A: Its value is “++”.

Q: Which “Aggregation of E. coli” value (DMBT1pbs1; substance 1-250 mM, pH co) does the source give for `NC(=O)CC[C@H](N)C(=O)O` [Glutamine] here?
A: Its value is “+++”.

Q: And the “Aggregation of S. gordonii” value (DMBT1pbs1; substance 1-250 mM, pH co)?
A: Its value is “+++”.

Q: With `OC[C@H]1O[C@H](O[C@H]2[C@H](O)[C@@H](O)C(O)O[C@@H]2CO)[C@H](O)[C@@H](O)[C@@H]1O` (mixture of isomers) [Maltose] as the compound, how does the “Aggregation of E. coli” value (DMBT1pbs1; substance 1-500 mM, pH co) read?
A: The value was “+++”.

Q: And the “Aggregation of S. gordonii” value (DMBT1pbs1; substance 1-500 mM, pH co)?
A: The value was “+++”.

Q: Which “Aggregation of E. coli” value (DMBT1pbs1; substance 1 mM, pH co) does the source give for `O=P([O-])([O-])O.[K+].[K+]` [K2HPO4] here?
A: Its value is “++”.

Q: And the “Aggregation of S. gordonii” value (DMBT1pbs1; substance 1 mM, pH co)?
A: The value was “++”.

Q: Which results are given for `Cc1cn([C@H]2C[C@H](O)[C@@H](COP(=O)(O)OP(=O)(O)OP(=O)(O)O)O2)c(=O)[nH]c1=O` [dTTP]?
A: Aggregation of E. coli (DMBT1pbs1; substance 1-8 mM, pH co): ++; Aggregation of S. gordonii (DMBT1pbs1; substance 1-8 mM, pH co): ++

Q: For `O=S(=O)([O-])[O-].[Na+].[Na+]` [Na2SO4], which “Aggregation of E. coli” value (DMBT1pbs1; substance 1 mM, pH co) is on record?
A: The value was “+”.

Q: What about the “Aggregation of S. gordonii” value (DMBT1pbs1; substance 1 mM, pH co) of the same compound?
A: The value was “+”.

Q: What about the “Aggregation of E. coli” value (DMBT1pbs1; substance 50-500 mM, pH co) of the same compound?
A: Its value is “−”.

Q: And the “Aggregation of S. gordonii” value (DMBT1pbs1; substance 50-500 mM, pH co)?
A: The value was “−”.

Q: For `[Ba+2].[OH-].[OH-]` [BaOH], which “Aggregation of E. coli” value (DMBT1pbs1; substance 5-50 mM, pH co) is on record?
A: The value was “+++”.

Q: What about the “Aggregation of S. gordonii” value (DMBT1pbs1; substance 5-50 mM, pH co) of the same compound?
A: The value was “+++”.

Q: Aprolinin was tested. Which “Aggregation of E. coli” value (DMBT1pbs1; substance 1-5 mg/ml, pH co) did it give?
A: Its value is “+++”.

Q: What about the “Aggregation of S. gordonii” value (DMBT1pbs1; substance 1-5 mg/ml, pH co) of the same compound?
A: Its value is “+++”.

Q: How did the “Aggregation of E. coli” value (DMBT1pbs1; substance 1-500 mM, pH co) turn out when `CN=[N+](C)[O-]` [Azoxymethane (AOM), Azoxymethane] was run?
A: The value was “+++”.

Q: And the “Aggregation of S. gordonii” value (DMBT1pbs1; substance 1-500 mM, pH co)?
A: Its value is “+++”.

Q: `OC[C@H]1O[C@@](CO)(O[C@H]2O[C@H](CO)[C@@H](O)[C@H](O)[C@H]2O)[C@@H](O)[C@@H]1O` [Sucrose] was tested. Which “Aggregation of E. coli” value (DMBT1pbs1; substance 1-500 mM, pH co) did it give?
A: Its value is “+++”.

Q: And the “Aggregation of S. gordonii” value (DMBT1pbs1; substance 1-500 mM, pH co)?
A: Its value is “+++”.

Q: Which “Aggregation of E. coli” value (DMBT1pbs1; substance 1-8 mM, pH co) does the source give for `Nc1ncnc2c1ncn2[C@H]1C[C@H](O)[C@@H](COP(=O)(O)OP(=O)(O)OP(=O)(O)O)O1` [dATP] here?
A: The value was “++”.

Q: What about the “Aggregation of S. gordonii” value (DMBT1pbs1; substance 1-8 mM, pH co) of the same compound?
A: The value was “++”.

Q: What does the source list for `CCN(CC)N=O` [N-nitrosodiethylamine (DEN), N-nitrosodiethylamine]?
A: Aggregation of E. coli (DMBT1pbs1; substance 1-50 mM, pH co): +++; Aggregation of S. gordonii (DMBT1pbs1; substance 1-50 mM, pH co): +++; Aggregation of E. coli (DMBT1pbs1; substance 100-500 mM, pH co): ++; Aggregation of S. gordonii (DMBT1pbs1; substance 100-500 mM, pH co): ++

Q: How did the “Aggregation of E. coli” value (DMBT1pbs1; substance 1-10 mM, pH co) turn out when `O=P([O-])(O)O.[K+]` [KH2 PO4] was run?
A: The value was “+”.

Q: And the “Aggregation of S. gordonii” value (DMBT1pbs1; substance 1-10 mM, pH co)?
A: Its value is “+”.

Q: For `Nc1ccn([C@H]2C[C@H](O)[C@@H](COP(=O)(O)OP(=O)(O)OP(=O)(O)O)O2)c(=O)n1` [dCTP], which “Aggregation of E. coli” value (DMBT1pbs1; substance 1-8 mM, pH co) is on record?
A: Its value is “++”.

Q: And the “Aggregation of S. gordonii” value (DMBT1pbs1; substance 1-8 mM, pH co)?
A: The value was “++”.

Q: What does the source list for `O=[N+]([O-])[O-].[K+]` [KNO3]?
A: Aggregation of E. coli (DMBT1pbs1; substance 500 mM, pH co): +; Aggregation of S. gordonii (DMBT1pbs1; substance 500 mM, pH co): +; Aggregation of E. coli (DMBT1pbs1; substance 1-100 mM, pH co): +++; Aggregation of S. gordonii (DMBT1pbs1; substance 1-100 mM, pH co): +++

Q: With “DMBT1: purified DMBT1 from saliva (salivary agglutinin)” as the compound, how does the “binding of Salmonella typhimurium chemotypes” value (Salmonella typhimurium) read?
A: The value was “Enhanced binding of the Rd1 and Re chemotype”.

Q: Heparan sulfate was tested. Which “Aggregation of E. coli” value (DMBT1pbs1; substance 1-5 mg/ml, pH co) did it give?
A: Its value is “−”.

Q: And the “Aggregation of S. gordonii” value (DMBT1pbs1; substance 1-5 mg/ml, pH co)?
A: The value was “−”.
